From patent US20220273748A1, “PLANT FERMENT AND WEIGHT LOSS METHOD FOR USING THE SAME” (TCI CO., LTD., priority 2021, published 2022)
Where two headings read alike, the source gives them in different places.

Experiments:
[1] = tested on: PYY gene; experiment: Expression level of PYY gene in NCI-H716 cells (qRT-PCR); format: cell-based; details: Homo sapiens, read-out: expression level of the PYY gene relative to the blank group
Procedure: Herein, the expression level of the gene (Gene ID: 5697) of the peptide tyrosine-tyrosine (PPY) protein in human colorectal adenocarcinoma NCI-H716 cells (purchased from the Bioresource Collection and Research Center (BCRC), number 60517; hereinafter referred to as NCI-H716 cells) treated with each of the compounds TCI-LTF-01, TCI-LTF-02, TCI-LTF-04, TCI-LTF-08, TCI-LTF-09, TCI-LTF-10, TCI-LTF-11, TCI-LTF-12, and TCI-LTF-14 that were identified in Example 7 was determined by using the RNA extraction kit, SuperScript® III Reverse Transcriptase, KAPA SYBR®FAST qPCR reagent kit, and quantitative PCR machine.
A cell culture medium used is a solution containing 20% of fetal bovine serum (FBS, purchased from Gibco, number 10438-026, US), 1% of antibiotic-antimycotic (purchased from Gibco, number 15240-062), 10 mM of HEPES buffer (purchased from Gibco, number 15630080), and 1 mM of sodium pyruvate (purchased from Gibco, number 11360070). The compounds TCI-LTF-01, TCI-LTF-02, TCI-LTF-04, TCI-LTF-08, TCI-LTF-09, TCI-LTF-10, TCI-LTF-11, TCI-LTF-12, and TCI-LTF-14 each was formulated into 100 mM of stock sample with the DMSO solvent.
First, the NCI-H716 cells were inoculated into a 6-well culture plate containing 2 mL of culture medium in a density of 1×10^5 cells per well, and cultured at 37° C. for 24 h. Next, the NCI-H716 cells were divided into a blank group and 9 experimental groups. Then, the cell culture medium in each group was replaced with 2 mL of experimental culture medium per well, and then cultured at 37° C. for 12 h. The experimental culture medium in the blank group was a cell culture medium with no treatment (that is, no additional compounds were added into the cell culture medium). The experimental culture medium in each of the 9 experimental groups was a cell culture medium containing […] of corresponding compound identified in Example 7, and the 9 compounds were: syringin (TCI-LTF-01), 1,5-di-o-caffroylquinic acid (TCI-LTF-02), luteolin (TCI-LTF-04), chlorogenic acid (TCI-LTF-08), dihydrocaffeic acid (TCI-LTF-09), caffeic acid (TCI-LTF-10), 4-hyderoxy-3-phenlylactic acid methyl ester (TCI-LTF-11), calceolarioside B (TCI-LTF-12), and 4-hydroxyphenolic acid (TCI-LTF-14). Herein, each of the 9 compounds was first formulated into 100 mM of stock sample with the DMSO solvent, and then added into the cell culture medium to give a final concentration of 100 μM in the cell culture medium. Each group was repeated for three times.
The cell membranes of the NCI-H716 cells treated in each group were broken with a cell lysis buffer to form a cell solution. Next, RNA of the 10 groups of cell solutions was extracted separately by using an RNA extraction reagent kit (purchased from Geneaid, Taiwan, Lot No. FC24015-G). Then, 1000 ng of the extracted RNA in each group was used as a template, and the extracted RNA was reverse transcribed into corresponding cDNA by the SuperScript® III reverse transcriptase (purchased from Invitrogene, USA, number 18080-051). Subsequently, the quantitative real-time reverse transcription polymerase chain reaction was carried out on the 10 groups of cDNA with the primers (SEQ ID NO: 15 to SEQ ID NO: 16) in Table 4 by using the ABI StepOnePlus™ Real-Time PCR system (Thermo Fisher Scientific, USA) and the KAPA SYBR FAST (purchased from Sigma, USA, number 38220000000) to observe the expression level of the PPY gene in the NCI-H716 cells in the 10 groups. The instrument setting conditions for the quantitative real-time reverse transcription polymerase chain reaction were 95° C. for 20 s, 95° C. for 3 s, 60° C. for 30 s, a total of 40 cycles, and gene quantification was carried out by the 2^−ΔCt method (using the m-ACTB gene as an internal reference gene). Herein, the quantitative real-time reverse transcription polymerase chain reaction with cDNA can indirectly quantify the expression level of the PYY protein encoded by the PPY gene. […]

[2] = tested on: OP9 cells differentiated into fat cells; experiment: Inhibition of lipid droplet accumulation in fat cells differentiated from OP9 cells (glycerol cell-based assay), isolated compounds; parameters: species or system mouse; details: final concentration 100 μM, 7 days, blank group = 100%
From the text: Herein, the content of glycerol in fat cells is used as a quantitative indicator to observe whether there is lipolysis.
A cell culture medium used is the α-minimum essential medium (α-MEM, Gibco, number 12000-022) containing 20% of fetal bovine serum (FBS. Gibco, number 10438-026) and 1% of antibiotic-antimycotic (Gibco, number 15240-062).
First, 8×10^4 OP9 cells (purchased from the American Type Culture Collection, ATCC®, number ATCC CRL-2749) were inoculated into a 24-well culture plate containing 500 μL of cell culture medium per well, and cultured at 37° C. for 7 days. During the 7-day cell culture, the cell culture medium was changed every 3 days. After the 7 days of culture, the formation of lipid droplets in the OP9 cells was observed by using a microscope (ZEISS; magnification 400×) to confirm that the OP9 cells were fully differentiated into fat cells for subsequent experiments.
Then, the differentiated fat cells were divided into a blank group and 5 experimental groups. The cell culture medium in each group was replaced with 500 μL of experimental medium per well, and then cultured at 37° C. for 7 days. During the 7-day culture, the experimental medium was replaced with a fresh 500 μL one every 3 days. The experimental culture medium in the blank group was just a cell culture medium (without other compounds), while the experimental culture medium in each of the 5 experimental group was a cell culture medium containing […] of corresponding compound identified in Example 7, and the 5 compounds were: syringin (TCI-LTF-01), 1,5-di-o-caffroylquinic acid (TCI-LTF-02), quercetin-3-glucuronide (TCI-LTF-03), gallic acid (TCI-LTF-06), and chlorogenic acid (TCI-LTF-08). […]
The content of glycerol was determined by using a glycerol cell-based assay kit (purchased from Cayman, USA, product number 10011725) according to the following steps. The experimental culture medium (that is, the experimental culture medium in which fat cells had been cultured, without the fat cells) in each group was collected, 25 μL of the experimental culture medium was transferred into a new 96-well culture plate, 100 μL of reconstituted free glycerol assay reagent was added into each well to react at room temperature for 15 min, and the absorbance OD540 nm of each group was read from the 96-well culture plate by an ELISA reader, to quantify the content of glycerol released into the experimental culture medium through lipolysis, as shown in FIG. 31. […] The obtained results were analyzed by student t-test using Excel software to determine whether there is a statistically significant difference between two sample groups. […]

[3] = NCI-H716 cells, final concentration 100 μM, 12 h, blank group = 1.0

Row | Structure (SMILES) | fold induction at 100 µM ([1]; NCI-H716, 12 h) | lipid droplet content [2] [%] | fold induction at 100 µM [1, 3]
1 | COc1cc(/C=C/CO)cc(OC)c1O[C@@H]1O[C@H](CO)[C@@H](O)[C@H](O)[C@H]1O [TCI-LTF-01, Syringin] | 6.2 | 64.8 | 
2 | O=C(/C=C/c1ccc(O)c(O)c1)O[C@@H]1C[C@](OC(=O)/C=C/c2ccc(O)c(O)c2)(C(=O)O)C[C@@H](O)[C@H]1O [TCI-LTF-02, 1,5-Di-O-caffroylquinic acid] |  | 75.2 | 2.3
3 | O=c1cc(-c2ccc(O)c(O)c2)oc2cc(O)cc(O)c12 [TCI-LTF-04, Luteolin] |  |  | 3.6
4 | O=C(O)c1cc(O)c(O)c(O)c1 [TCI-LTF-06, Gallic acid] |  | 72.4 | 
5 | O=C(/C=C/c1ccc(O)c(O)c1)O[C@@H]1C[C@](O)(C(=O)O)C[C@@H](O)[C@H]1O [TCI-LTF-08, Chlorogenic acid] |  | 69.3 | 5.3
6 | O=C(O)CCc1ccc(O)c(O)c1 [TCI-LTF-09, Dihydrocaffeic acid] |  |  | 4.9
7 | O=C(O)/C=C/c1ccc(O)c(O)c1 [TCI-LTF-10, Caffeic acid] |  |  | 3.5
8 | COC(=O)C(O)Cc1ccc(O)cc1 (stereo not shown) [TCI-LTF-11, 4-Hyderoxy-3-phenlylactic acid methyl ester] |  |  | 4.5
9 | O=C(/C=C/c1ccc(O)c(O)c1)OC[C@H]1O[C@@H](OCCc2ccc(O)c(O)c2)[C@H](O)[C@@H](O)[C@@H]1O [TCI-LTF-12, Calceolarioside B] |  |  | 5.6
10 | O=C(O)c1ccc(O)cc1 [TCI-LTF-14, 4-Hydroxyphenolic acid] |  |  | 3.6
